Patent US20070203126A1, “Synergistic Mixtures of O-Phenylphenol and Dazomet” (priority 2002, published 2007)
Read-outs that look alike come from different tables or passages of the source.

Key:
[1] = tested on: artificial bacterial consortium containing approximately equal numbers of six bacterial strains; assay: bacterial growth inhibition dose protocol in synthetic white water (O.D. 650 nm, 4 hours); type: cell-based; conditions: for Synergy Index: Dazomet & NaOPP, end point 50% inhibition, SI<1 synergism
Method: The actives were evaluated in synthetic white water with pH values of 5.5 and 8.0. The materials were tested against an artificial bacterial consortium containing approximately equal numbers of six bacterial strains. […] Two of the strains were Kiebsiella pneumoia (ATCC 13883) and Pseudomonas aeruginosa (ATCC 15442). The other four strains were isolated from papermill systems and have been identified as Curtobacterium flaccumfaciens, Burkhlderia cepacia, Bacillus maroccanus, and Pseudomonas glethei. Each strain was inoculated at 37° C. overnight, then suspended in sterile saline. Equal volumes of each strain were then combined to prepare the consortium. The bacterial consortium was distributed into the wells of a microtiter plate in the presence or absence of various concentrations of the active materials. The microtiter plates were incubated at 37° C. Optical density (O.D.) readings at 650 nm were taken initially (t0) and after time 4 hours (t4) of incubation.
The raw data was converted to “bacterial growth inhibition percentages” according to the following formula: % Inhibition=[(a−b)÷a]·100 […]
a=(O.D. of control at tn)−(O.D. of control at t0) b=(O.D. of treatment at tn)−(O.D. of treatment at t0)
The inhibition values can be plotted versus dosage for each active and the particular blend. […] The synergism index (SI) was calculated by the equations described by F. C. Kull, P. C. Eisman, H. D. Sylwestrowicz, and R. L. Mayer (1961), Applied Microbiology 9, 538-541. The values are based on the amount needed to achieve a specified end point. […] Synergy Index (SI)=(QA÷Qa)+(QB÷Qb) […]
QA=quantity of compound A in mixture, producing the end point
Qa=quantity of compound A1 acting alone, producing the end point
QB=quantity of compound B in mixture, producing the end point
Qb=quantity of compound B1 acting alone, producing the end point
If SI is less than 1, synergism exists; if SI is greater than 1, antagonism exists, if SI is equal to 1, an additive effect exists.

[2] = tested on: mixed inoculum of bacteria; assay: microtiter plate MIC and combination (K value) test in nutrient broth; type: cell-based; conditions: 24 hours, read-out: MIC RESULTS against mixed inoculum of bacteria
Method: EQUIPMENT used for the experiment are as follows: • 1. Incubator capable of maintaining a variable temperature range (25-45 C.); • 2. Samples of each biocide or test compound to be examined; • 3. Microtiter plates—96 well with lid, sterile; • 4. 8-12 channel micropipetting device capable of pipetting 0-250 ul volumes; • 5. Micropipette tips capable of holding up to 250 ul volumes; • 6. Sterile microbiological culture broth. Trypticase Soy Broth (TSB) or Nutrient Broth (NB) is recommended for bacteria and Sabouraud Maltose Broth (SMB) or Sabouraud Dextrose Broth (SDB) is recommended for yeasts and molds. In the case of this particular study the microbiological culture medium was Nutrient Broth at pH 7.0, 8.0 and 9.0; • 7. Pure cultures of microorganisms of choice grown on appropriate agar medium; • 8. Sterile distilled water; • 9. 100 mL volumetric flasks (one for each biocide to be tested); • 10. Sterile 10 mL tubes of Phosphate buffer (Butterfield's buffer pH 7.2+/−0.2). Contains purified water, monobasic potassium phosphate and sodium hydroxide for pH adjustment; • 11. Sterile cotton swabs; • 12. 0.5 MacFarland Turbidity Standard;
Preparation of Bacterial Inocula
The day before testing, perform a streak plate of each organism to be tested on an appropriate agar medium (Trypticase Soy Agar). Organisms tested in this study were.
Wild strain bacteria isolated from previously contaminated industrial systems and which were identified as: Pseudomonas sp., Escherchia coli, Enterobacter sp., Alcaligenes sp. and Alcaligenes faecalis. On the day of the test, use a sterile cotton swab to harvest some of the growth. Place swab into a tube containing 10 mL sterile phosphate buffer. Compare and adjust the turbidity of the organisms in the tube to 1×10^8 cfu/mL using a 0.5 MacFarland Turbidity Standard. Dilute the 10 mL tube into 90 mL of sterile 2× nutrient broth at pH 7.0, 8.0 and 9.0.
The following procedure was used: • 1. Design the layout of the microtiter plates based on the number of organisms to test and the number of biocides and desired concentrations to test. A separate microtiter plate is required for testing each biocide alone, in addition to the combination microtiter plate. • 2. Prepare a working stock solution of each biocide to be tested. For the combination microtiter plate, the working stock solution of Biocide A will be 8× the concentration desired in the first well of the combination microtiter plate. The working stock solution of Biocide B will be 4× the concentration desired in the first well of the combination microtiter plate. For the alone microtiter plates, the working stock solutions of Biocide A and Biocide B will both be 4× the concentration desired in the first well of the single biocide microtiter plates.
Tetrahydro-3-5-dimethyl-2H-1,3-5-thiadiazine-2-thione (Dazomet): (For combination plates) A solution of this product, which is 99% active, was made as follows: […]=8000 ppm active=8000/0.99=8080 ppm, 0.8 g into 100 mL MeOH and sterile diH2O.
o-Phenylphenol (OPP): (For combination plates) Make a solution of this product which is 99% active, 4×125=500 ppm active=500/0.99=505 ppm, 0.05 g into 100 mL MeOH and sterile diH2O. Level to test is 125 ppm.
(For alone plates) A solution was made as follows: 4×4000=16000 ppm active=16000/0.99=16161 ppm, 1.6 into 100 mL MeOH and sterile diH2O. Levels to test are: 4000 ppm, 2000 ppm, 1000 ppm, 500 ppm, 250 ppm, 125 ppm, 62.5 ppm, 31.2 ppm, 15.6 ppm, 7.8 ppm, 3.9 ppm, 1.95 ppm • 3. Place 50 ul of sterile distilled water in all of the rows in columns 1 through 10, and 100 ul of sterile distilled water in all of the rows in columns 11 and 12 of the 96 well combination microtiter plate. Place 100 ul of sterile distilled water in each well of the 96 well alone microtiter plates. • 4. For the combination microtiter plate, place 50 ul of the Biocide A stock solution into all of the rows in column 1 of the combination microtiter plate. • 5. […]

| Compound | Synergy Index ([1]; pH 5.5) | ppm Dazomet ([1]; pH 5.5, Dazomet alone or in blend with NaOPP giving 50% inhibition, ppm active) [ppm] | Synergy Index ([1]; pH 8.0) | Ppm Dazomet ([1]; pH 8.0, Dazomet alone or in blend with NaOPP giving 50% inhibition, ppm active) [ppm] | MIC ([2]; pH 7.0, biocide alone) [µg/mL] | MIC ([2]; pH 8.0, biocide alone) [µg/mL] | MIC ([2]; pH 9.0, biocide alone) [µg/mL] |
| --- | --- | --- | --- | --- | --- | --- | --- |
| CN1CSC(=S)N(C)C1 [Dazomet, tetrahydo-3,5-dimethyl-2H-1-3-5-thiadiazine-2-thione] | 1.00 | 6.176 | 1.00 | 5.34 | 2000 | 2000 | 4000 |
| Oc1ccccc1-c1ccccc1 [OPP, o-Phenylphenol] |  |  |  |  | 2000 | 1000 | 500 |
